Experimental data as given in patent publication US10801023B2, “Methods of identifying biologically active random peptides in plants and libraries of plants expressing candidate biologically active random peptides” (University of Florida Research Foundation, Inc., priority 2015, dated 2020).

Key:
Arabidopsis plants [1] = assay: Plant growth and phenotyping of PEP6 / PEP12 transgenic plants; type: in vivo, Arabidopsis thaliana; settings: transgenic plant in soil; normal-sized plants 25 mm to 30 mm
From the text: Two libraries encoding six- and twelve-random amino acid cyclized peptides (denoted PEP6 and PEP12, respectively) were constructed in binary vectors (as illustrated in FIG. 9) using a Gateway cloning strategy and transformed into Arabidopsis. More than 1,500 transgenic plants with the PEP6 T-DNA inserts were isolated and more than 600 transgenic plants were isolated carrying the PEP12 insert, representing a survival ratio of 1.8% and 1.2% respectively under kanamycin selection. To ensure library representation in the population, DNA was prepared from at least fifty transgenic plants, including ten that had small rosette diameter (5 mm to 10 mm) (e.g., those having BARP sequences SEQ ID NO: 14, 16, 6, 19, 21, 23, 26, 28, 30, and 32) compared to normal-sized plants (25 mm to 30 mm; see Table 2). The nucleotide sequences of all amplified random peptide open reading frames (rpORFs) were different, indicating representation of library diversity was maintained throughout the cloning and transformation process. Several phenotypes were visually apparent. […] Some plants showing multiple growth defects were recorded in each phenotype. Bolting plants with multiple inflorescences were transformed with the PEP6 or PEP12 destination library through the floral dipping method (Clough and Bent, 1998, incorporated herein by reference). For selection, seeds were surface sterilized by 70% ethanol for 5 min and 10% bleach for 20 min. Surface-sterilized seeds were plated on ½× MS basal medium with 0.5% Phyto Agar (cat. # M10200 and # A20300, Research Products International) and 50 μg/ml kanamycin for selection. Transgenic seedlings were identified by GFP expression or resistance to kanamycin. Transformed seedlings were grown to the 3-5 true leaf stage on plates and transferred to soil. DNA was extracted from each seedling (Edwards et al., 1991 incorporated herein by reference) for inserted nucleotide sequence identification. An approximately 500 bp DNA fragment containing the random peptide ORF and part of pK7WG2D vector sequence was amplified using primers PEP-F and PEP-R (SEQ ID NOs: 35 and 36, respectively) listed in Table 4 and sequenced. Arabidopsis plants were grown in soil at 20° C. under 16 hour light/8 hour dark conditions. The characterization of phenotypic variations was based on the comparison among seedlings grown in the same pot or flat.

[2] = system: Arabidopsis thaliana plants; assay: Quantitative analysis of flowering time of CBF6AA-15 transformant lines; type: in vivo; settings: lines 26, 29, 31 versus wild type Col-0
From the text: FIG. 4A is a digital image comparing a wild type A. thaliana plant with 3 separate lines transformed with the 6AA-15 BARP. A bar graph comparing the number of rosette leaves for each line at the time of flowering is illustrated in FIG. 4B. FIGS. 4C-4F are a series of graphs illustrating quantitative analysis of flowering time for the plant lines illustrated in FIG. 4A, with a minimum of 113 plants analyzed per line.
The observed phenotype was also confirmed by the observed number of rosette leaves present on the plant at the time of flowering, where transformants flowered days earlier and after producing fewer leaves. […] A minimum of 113 plants were analyzed per line, and the number of days until flowering was recorded. FIGS. 4C-4F illustrate the distribution of flowering times of wild type plants vs. the three transformant lines, with the mean shifting from 36 days in wild-type plants to […] in the transgenic lines.

[3] = system: Arabidopsis thaliana plants; assay: Screening of library of transformed plants expressing candidate BARPs for new phenotypes; type: in vivo; settings: transgenic Arabidopsis thaliana expressing the BARP, scored from emergence to senescence
From the text: In the present example, the methods of the present disclosure were used to generate a library of test nucleic acids encoding a plurality of candidate BARPs, each having a core 6 amino acid random peptide sequence flanked by two cysteine residues. The sequences were also flanked by start and stop codons and Gateway® sequences, such as illustrated in FIG. 1. PCR was used with primers corresponding to the known Gateway flanking sequences to generate the test nucleic acid library. The oligonucleotides were then cloned into bacterial vectors including genes for kanamycin resistance to create a recombination vector library. The vectors were then moved to Agrobacterium tumefaciens strain […] and used to transform Arabidopsis thaliana plants. Seeds were collected from the transformed plants and used to grow new plants. These plants were observed from seedling through the plant lifecycle and observed for new phenotypes. Several new phenotypes emerged, DNA was extracted from the plants displaying new phenotypes, and the sequence of the candidate BARP from the plants was determined. The procedures and results are described in detail below.
The test nucleic acid sequences were synthesized using conserved initiator and terminator sequences flanking 18 random nucleotides, which provides a peptide that is ten amino acids long, with six of the core amino acids randomized, following a Met-Ala-Cys and ending with a Cys-term. This template is illustrated in FIG. 1. In the present example, the corresponding nucleic acid sequence was […] (SEQ ID NO: 5; nucleotides 14-46 of SEQ ID NO: 1). The cysteine residues in this case provide potential for formation of disulfide bonds that may impart additional structure to the adjacent amino acid loop. Although in this example 18 random nucleotides (identified as “N” in SEQ ID NOs: 1 and 5) were used, any number may be used, as long as it is a multiple of three.
To construct the library of random-core BARP sequences, the above DNA sequence was synthesized as an oligonucleotide sequence, along with flanking sequences corresponding to the Gateway® recombination sequences. The middle portion of the sequence, represented by “N” in FIG. 1, were randomized nucleotides. Known synthesis techniques were used to build the sequences, resulting in a library of PCR products containing test nucleic acid sequences (start codon, spacer codon, cysteine codon, 18 random nucleotides encoding a core candidate BARP sequence, second cysteine codon, and stop codon) flanked by Gateway recombination sequences. Although Gateway® sequences were used in the present examples, other recombination cloning primer sequences could be used or specifically designed.
The library of PCR products containing random test sequences was amplified using PCR based on flanking primers containing Gateway recombination sequences. These reactions produced a population of PCR products each containing the core peptide test sequence flanked by Gateway recombination sequences. These PCR products were introduced to the vector pDONR222 using Gateway recombination, and then transformed into E. coli genotype DH5α. The transformation vector also included the NPTII gene for kanamycin resistance. The E. coli cells were plated on kanamycin plates at low density to obtain single-colony separation. The single colonies each contained a separate plasmid bearing a random peptide sequence.
The colonies were recovered from plates in liquid medium, and the plasmids were isolated. The isolated plasmids represented a library of many independent, random sequences (encoding candidate BARPs) flanked by ‘start’ and ‘stop’ sequences. […]

[4] = system: Arabidopsis thaliana plants; assay: Independent replication of peptide-induced phenotypes in independent transformant lines; type: in vivo; settings: BARP sequence re-introduced into Arabidopsis thaliana
Procedure: A number of first-transformed generation plants were prepared and phenotypes were observed using the methods described in Example 1, above. In this example some 12-amino-acid-long candidate BARPs were also synthesized and tested. The procedures were the same as for the 6-aa BARPs described in Example 1. These phenotypes were also observed to be stable and inherited in subsequent generations. To verify that the effects observed are due to the expressed peptide and not to other less-likely positional/insertional causes, in this Example, a substantial number of the of the candidate 6 and 12 amino-acid-long BARPs were sequenced and separately transformed into independent plants. […] One microliter was used in a PCR reaction under standard conditions, and using primers corresponding to the attachment (recombinational cloning sequences) of the Gateway vector, the corresponding BARP sequences was amplified. This sequences were then recombined into the pDONR222 vector and then re-ligated into the binary pKWDG2 over-expression vector as described above. This sequence was then re-introduced into Arabidopsis thaliana plants using the floral dipping strategy and selection as noted above. The seedlings were then analyzed for the phenotype as defined by the original transformant. Recapitulation of the phenotype in multiple, independent transformation events provided high evidence of a specific physiological effect of the peptide.

Arabidopsis plants [5] = assay: Flowering time measurement; type: in vivo, Arabidopsis thaliana
From the text: The rpORF were cloned from this seedling PEP6-15 and retransformed into Col-0. A total of 15 independent transgenic lines were isolated and measured on their flowering time. About 75% independent lines had earlier flowering time compared to wild type plants. Thereafter three representative lines 1, 2 and 3, were chosen for detailed analyses (FIG. 11A). […] Thus, the BARP for PEP6-15 (SEQ ID NO: 6, nucleotide sequence SEQ ID NO: 17) appears to produce an earlier flowering time phenotype. […] Three independent PEP6-15 transgenic lines with no transgene segregation were grown directly in soil for the measurement of flowering time. Every line was planted in three 10 cm×10 cm×11 cm pots, and approximately twenty seeds were sown in each pot. The flowering time was recorded as the number of rosette leaves when the inflorescence stem was 0.5-1 cm long. When the majority of plants had flowered, measurement was concluded.

Arabidopsis seedlings = assay: Effects of lethal sequences: growth of PEP6-3 seedlings with or without sucrose; type: in vivo, Arabidopsis thaliana
From the text: If these seedlings were transplanted to media supplemented with 2% sucrose some of them survived. These surviving seedlings were genotyped. One of these seedlings grew on a sucrose plate for one month and in soil for another 2 months before bolting and setting seeds. The rpORF was re-cloned and transformed into Col-0 Arabidopsis to generate independent transformation lines. […] The T2 seeds from the original line and 5 independent lines were sown on a ½ MS plate with or without sucrose under kanamycin selection. Seeds on both types of media germinated at a rate of 95%. […] The effect of the peptide was tested in petunia. […] Thus, the BARP for PEP6-3 (SEQ ID NO: 14, nucleotide sequence SEQ ID NO: 13) appears to produce phenotype that requires sucrose media.
It is possible that the phenotypes observed were not related to the peptide sequence, but instead were artifacts of T-DNA integration, since insertion of the CaMV35S-bearing T-DNA cassette could potentially disrupt a gene where an effect could be observed in its heterozygous form, or the viral promoter could activate expression of neighboring genes, resulting in an observable phenotype. Thus, to generate a series of independent transformants for each sequence of interest, the random peptide ORFs from transgenic plants showing aberrant phenotypes were amplified using attB universal adaptor primers, and cloned into pDONR222 and pK7WG2D vectors via BP and LR reactions, respectively. These constructs were then transformed into Arabidopsis to generate additional independent transgenic lines. Each series of independent transgenic lines containing the same random peptide ORF were grown under the same conditions used to produce the original phenotype. Transcript abundance of the random peptide ORF and the control gene Ubiquitin family protein (UFP, At4g01000) in every transgenic line was analyzed by semi-quantitative RT-PCR using attB1 and attB2 adaptor primers or UFP-rF and -rR primers (SEQ ID NOs: 37-38), respectively.
The seedling was moved to media containing sucrose where it then developed normally. Five independent lines (1, 2, 3, 4 and 6) containing the PEP6-3 sequence (SEQ ID NO: 13) were grown under kanamycin selection on ½ MS medium with or without the supplement of 2% sucrose in dark for the first 7 d and then exposed to light. Without sucrose, some seedlings with only the two cotyledons or the first two true leaves died eventually, and only a few seedlings fully developed. The proportion of seedlings developed with the first two true leaves or fully developed was recorded.

Petunia hybrida = assay: Petunia transformation with PEP6-3; type: in vivo; settings: five independent transgenic shoots, versus controls
Procedure: PEPS-3 was introduced into Petunia hybrida by Agrobacterium tumefaciens-mediated transformation of leaf fragments, following a modified protocol by Jorgensen et al, (1996), incorporated herein by reference. Leaves were dissected into 4×5 mm fragments and immersed in Agrobacterium solution for 15 min, then transferred to MS agar plates supplemented with TDZ (1 μg/mL), galacturonic add (212 μg/mL) and acetosyringone (8 μg/mL). After 2 d in darkness, explants were transferred to MS medium containing TDZ (1 μg/mL), carbenicillin (500 μg/mL) and kanamycin (150 μg/mL) for two weeks. Callusing explants were then transferred to light on MS medium containing only antibiotics. After the appearance of shoots, these were transferred to MS medium containing antibiotics and IBA (0.8 μg/mL), for root formation.

[6] = ½ MS plate without sucrose, kanamycin selection, T2 seeds

Sequence: MACDFNFGIC (chemically synthesized peptide sequence of BARP CBF6AA-15 associated with early flowering behavior)
- rosette size (Arabidopsis plants [1]): 5 mm
- number of rosette leaves at the time of flowering [2]: fewer number of leaves at the time of flowering than the wild type
- phenotype [3]: tiny, slightly early flowering
- phenotype in independent transformant lines [4]: significant early-flowering phenotype
- bolting earlier than Col-0 (Arabidopsis plants [5]; lines 1, 2 and 3, inferred from rosette leaf number): 3 to 4 days
- number of rosette leaves when bolting (Arabidopsis plants [5]; lines 1, 2 and 3, 16 hour light/8 hour dark, Col-0 11.5): 10 rosette leaves

Sequence: MACRGVDSAC (chemically synthesized peptide sequence of BARP PEP6-3) [BARP producing sucrose dependent phenotype]
- size of independent transgenic lines (Arabidopsis seedlings; 20 independent transgenic lines versus control lines): grew smaller than control lines
- development of germinated seeds on sucrose plates (Arabidopsis seedlings; ½ MS plate with 2% sucrose): grew into fully-developed plants
- germination rate (Arabidopsis seedlings; ½ MS plate with or without sucrose (both types of media)): 95%
- transgenic seedlings forming true leaves (Arabidopsis seedlings; [6]): < 30%
- transgenic seedlings growing into fully-developed plants (Arabidopsis seedlings; [6]): < 10%
- rosette size (Arabidopsis plants [1]): 5 mm
- growth of transgenic petunia shoots (Petunia hybrida): grew slowly compared to controls before turning pale and dying after several weeks
